Tests used:
[1] = test system: Prostate-specific Antigen (PSA) production in LNCaP cells; assay: PSA assay: inhibition of PSA production in LNCaP cells (ELISA); type: cell-based; details: Homo sapiens, 72 h, R1881 1 ng/ml, three days, seven point assay
Method: (§1) PSA Assay (Inhibition Test of the Compound of the Present Invention on Prostate-Specific Antigen (PSA) Production in Various Prostate Cancer Cells)
(§2) Androgen dependent LNCaP and 22RV1 cells were purchased from the American Type Culture Collection (ATCC, Manassas, Va.). These cells were grown in RPMI 1640 medium supplemented with 10% fetal bovine serum (FBS), 100 U/mL penicillin, 100 μg/mL streptomycin, and 0.25 μg/mL amphotericin B. The cells were maintained at 37° C. and 5% CO2. LNCaP cells between passage 20 and 35, and 22RV1 cells between passage 30 and 50 were used for experiments. LNCaP is a hormone sensitive cell line, while 22RV1 is a hormone refractory prostate cancer cell line, which derived from a primary prostate tumor. This cell line was isolated from a xenograft (CWR22R-2152) that was serially propagated in mice after castration-induced regression and relapse of the parental, androgen-dependent CWR xenograft. For the PSA assay, human prostate cancer cells LNCaP or 22RV1 were seeded in a 96-well plate at a concentration of 5000 cells/100 μl/well. On the following day, Methyltrienolone (R1881, AR agonist) (final concentration 1 ng/ml), test compounds or bicalutamide (Casodex®, AstraZeneca) (final concentration 0.005 to 20 μM) were added. Three days after the addition, the concentration of PSA in the supernatant of the culture solution was measured by ELISA. ELISAs for human PSA in culture medium were performed using the ultra-sensitive assay procedure and reagents in the Active™ PSA assay kit (Diagnostic Systems Laboratories Inc., Webster, Tex.). Culture medium and standards (200 μl/well) were incubated in antibody-coated plates for 2 h at room temperature on a Titer plate shaker at 500-600 rpm. Wells were then washed five times. The HRP conjugate was diluted 1:20 with assay buffer, and 100 μl was added to all wells. The plates were incubated for 30 min at room temperature on the shaker and washed as before, and 100 μl TMB (3,3′,5,5′-tetramethylbenzidine, 0.4 g/l) was added. The plates were incubated for 10 min on the shaker, and the reaction was terminated with 100 μl stop solution. The plates were read using a plate reader at 450 nm with a 650 nm reference filter. PSA levels were normalized for differences in growth of LNCaP or 22RV1 cells following various treatments as determined by the MTS assay. IC50 of PSA was calculated based on a seven point assay (concentrations of tested compound) and expressed as micromolar (uM). Results on 22RV1 cells are shown as percent inhibition at 2 micromolar (uM). ND means not determined

[2] = test system: Prostate-specific Antigen (PSA) production in 22RV1 cells; assay: PSA assay: inhibition of PSA production in 22RV1 cells (ELISA); type: cell-based; details: Homo sapiens, 72 h, R1881 1 ng/ml, three days
Method: as §1
as §2, with “Results on 22RV1 cells are shown as percent inhibition at 2 micromolar (uM).” left out

LNCaP cells = assay: Cell viability assay, LNCaP cells; type: cell-based; details: Homo sapiens; LNCaP cells, 2.5 uM, R1881 1 ng/ml, 48-hour; read-out: Inhibition of cell viability, LNCaP % inhibition at 2.5 uM
Method: (§3) LNCaP and 22RV1 cells were maintained in RPMI 1640 medium supplemented with 10% fetal bovine serum (FBS), 100 U/mL penicillin, 100 μg/mL streptomycin, and 0.25 μg/mL amphotericin B, splitting cells when they reached 80-90% confluence. In order to test compounds, 10,000 cells/well were plated in 96 cell culture plates using 100 ul/well plating medium, cultured overnight at 37° C. in a cell culture incubator. After carefully remove plating medium, 80 ul/well of pre-warmed assay medium was added, followed by adding 10 ul/well test compounds or bicalutamide (final concentration from 20 uM to 0.1 uM), incubated at 37° C. for 30 minutes, then adding 10 ul/well freshly prepared Methyltrienolone (R1881, AR agonist) (final concentration 1 ng/ml) to each well, incubate at 37° C. for 48-hour. At the end of incubation, 20 μl MTT (2.5 mg/ml in PBS) was added to each well, and the cells were further incubated for 2 h at 37 C to allow a complete reaction between the dye and the enzyme mitochondrial dehydrogenase in the viable cells. After removal of the residual dye and medium, 100 μl dimethylsulfoxide was added to each well, and the absorbance at 570 nm was measured with an microplate reader. The fold induction over background by 1 nM R1881 in the absence of test compounds is standardized as 100% and experimental result is expressed as percentage of inhibition by testing compounds at 2.5 micromolar (uM).

22RV1 cells = assay: Cell viability assay, 22RV1 cells; type: cell-based, human; details: Homo sapiens; 22RV1 cells, 2.5 uM, R1881 1 ng/ml, 48-hour; read-out: Inhibition of cell viability, 22RV1 % inhibition at 2.5 uM
Method: as §3

Compound: Cc1ccc(N2C(=S)N(c3ccc(C#N)c(Cl)c3F)C(=O)C2(C)C)cc1 [Example 29, 2-Chloro-4-(4,4-dimethyl-5-oxo-2-thioxo-3-p-tolyl-imidazolidin-1-yl)-3-fluoro-benzonitrile]
- IC50 [1]: 280 nM
- inhibition at 2 µM [2]: 78%

Compound: COc1c(C#N)ccc(N2C(=O)C(C)(C)N(c3ccc(F)cc3)C2=S)c1F [Example 19, 3-Fluoro-4-[3-(4-fluoro-phenyl)-4,4-dimethyl-5-oxo-2-thioxo-imidazolidin-1-yl]-2-methoxy-benzonitrile]
- IC50 [1]: 290 nM
- inhibition at 2 µM [2]: 72%
- cytotoxicity at 2.5 µM (LNCaP cells): 87%
- cytotoxicity at 2.5 µM (22RV1 cells): 63%

Compound: COc1c(C#N)ccc(N2C(=O)C(C)(C)N(c3ccc(S(C)(=O)=O)cc3)C2=S)c1F [Example 21, 3-Fluoro-4-[3-(4-methanesulfonyl-phenyl)-4,4-dimethyl-5-oxo-2-thioxo-imidazolidin-1-yl]-2-methoxy-benzonitrile]
- IC50 [1]: 1800 nM

Compound: CNC(=O)c1ccc(N2C(=S)N(c3ccc(C#N)cc3F)C(=O)C23CCC3)cc1F [Example 5, 4-[7-(4-Cyano-2-fluoro-phenyl)-8-oxo-6-thioxo-5,7-diaza-spiro[3.4]oct-5-yl]-2-fluoro-N-methyl-benzamide]
- IC50 [1]: 1400 nM

Compound: CC1(C)C(=O)N(c2ccc(C#N)c(C(F)(F)F)c2F)C(=S)N1c1ccc(S(C)(=O)=O)cc1 [Example 13, 3-Fluoro-4-[3-(4-methanesulfonyl-phenyl)-4,4-dimethyl-5-oxo-2-thioxo-imidazolidin-1-yl]-2-trifluoromethyl-benzonitrile]
- IC50 [1]: 520 nM
- inhibition at 2 µM [2]: 61%

Compound: CC1(C)C(=O)N(c2ccc(C#N)c(Cl)c2F)C(=S)N1c1ccc(S(C)(=O)=O)cc1 [Example 16, 2-Chloro-3-fluoro-4-[3-(4-methanesulfonyl-phenyl)-4,4-dimethyl-5-oxo-2-thioxo-imidazolidin-1-yl]-benzonitrile]
- IC50 [1]: 630 nM
- inhibition at 2 µM [2]: 70%

Compound: CNC(=O)c1ccc(N2C(=S)N(c3ccc(C#N)c(OC)c3F)C(=O)C2(C)C)cc1F [Example 22, 4-[3-(4-Cyano-2-fluoro-3-methoxy-phenyl)-5,5-dimethyl-4-oxo-2-thioxo-imidazolidin-1-yl]-2-fluoro-N-methyl-benzamide]
- IC50 [1]: 520 nM
- inhibition at 2 µM [2]: 57%

Compound: Cc1ccc(N2C(=S)N(c3ccc(C#N)c(Cl)c3F)C(=O)C2(C)C)cn1 [Example 17, 2-Chloro-4-[4,4-dimethyl-3-(6-methyl-pyridin-3-yl)-5-oxo-2-thioxo-imidazolidin-1-yl]-3-fluoro-benzonitrile]
- IC50 [1]: 310 nM
- inhibition at 2 µM [2]: 76%

Compound: Cc1ccc(N2C(=S)N(c3ccc(C#N)c(C#N)c3)C(=O)C2(C)C)cc1F [Example 25, 4-[3-(3-Fluoro-4-methyl-phenyl)-4,4-dimethyl-5-oxo-2-thioxo-imidazolidin-1-yl]-phthalonitrile]
- IC50 [1]: 290 nM
- inhibition at 2 µM [2]: 82%

Compound: Cc1ccc(N2C(=S)N(c3ccc(C#N)c(C(F)(F)F)c3F)C(=O)C2(C)C)cn1 [Example 15, 4-[4,4-Dimethyl-3-(6-methyl-pyridin-3-yl)-5-oxo-2-thioxo-imidazolidin-1-yl]-3-fluoro-2-trifluoromethyl-benzonitrile]
- IC50 [1]: 350 nM
- inhibition at 2 µM [2]: 69%

Compound: CNC(=O)c1ccc(N2C(=S)N(c3ccc(C#N)c(C#N)c3)C(=O)C23CCC3)cc1F [Example 9, 4-[7-(3,4-Dicyano-phenyl)-8-oxo-6-thioxo-5,7-diaza-spiro[3.4]oct-5-yl]-2-fluoro-N-methyl-benzamide]
- IC50 [1]: 980 nM
- inhibition at 2 µM [2]: 64%

Compound: Cc1ccc(N2C(=S)N(c3ccc(C#N)c(Cl)c3F)C(=O)C2(C)C)cc1F [Example 31, 2-Chloro-3-fluoro-4-[3-(3-fluoro-4-methyl-phenyl)-4,4-dimethyl-5-oxo-2-thioxo-imidazolidin-1-yl]-benzonitrile]
- IC50 [1]: 420 nM
- inhibition at 2 µM [2]: 67%

Compound: CNC(=O)c1ccc(N2C(=S)N(c3cc(F)c(C#N)cc3F)C(=O)C23CCC3)cc1F [Example 3, 4-[7-(4-Cyano-2,5-difluoro-phenyl)-8-oxo-6-thioxo-5,7-diaza-spiro[3.4]oct-5-yl]-2-fluoro-N-methyl-benzamide]
- IC50 [1]: 2100 nM
- inhibition at 2 µM [2]: 21%

Compound: CNC(=O)c1ccc(N2C(=S)N(c3ccc(C#N)cc3C)C(=O)C23CCC3)cc1F [Example 6, 4-[7-(4-Cyano-2-methyl-phenyl)-8-oxo-6-thioxo-5,7-diaza-spiro[3.4]oct-5-yl]-2-fluoro-N-methyl-benzamide]
- IC50 [1]: 1500 nM

Compound: CC1(C)C(=O)N(c2ccc(C#N)c(C(F)(F)F)c2F)C(=S)N1c1ccc(C#N)cc1 [Example 14, 4-(4,4-Dimethyl-5-oxo-2-thioxo-3-p-cyanophenyl-imidazolidin-1-yl)-3-fluoro-2-trifluoromethyl-benzonitrile]
- IC50 [1]: 490 nM
- inhibition at 2 µM [2]: 71%

Compound: CNC(=O)c1ccc(N2C(=S)N(c3ccc(C#N)cc3C(F)(F)F)C(=O)C23CCC3)cc1F [Example 7, 4-[7-(4-Cyano-2-trifluoromethyl-phenyl)-8-oxo-6-thioxo-5,7-diaza-spiro[3.4]oct-5-yl]-2-fluoro-N-methyl-benzamide]
- IC50 [1]: 1500 nM

Compound: CNC(=O)c1ccc(N2C(=S)N(c3ccc(C#N)cc3OC(F)(F)F)C(=O)C23CCC3)cc1F [Example 4, 4-[7-(4-Cyano-2-trifluoromethoxy-phenyl)-8-oxo-6-thioxo-5,7-diaza-spiro[3.4]oct-5-yl]-2-fluoro-N-methyl-benzamide]
- IC50 [1]: 1400 nM
